According to patent publication US5153352A, “Process for preparation of intermediates of carbocyclic nucleoside analogs” (priority 1990, dated 1992):

Tests used:
[1] = system: Human Immunodeficiency Virus (HIV); experiment: HIV CPE inhibition assay in ATH8 cells; format: cell-based; set-up: ID50: unit not given beside the values
Method: (§1) The ATH8 human T-cell line expresses high levels of the CD4 surface antigen and is quite sensitive to the cytopathogenic effect (CPE) of HIV. The cells were propagated in RPMI 1640 medium supplemented with 4mM glutamine, 15% heat-inactivated fetal bovine serum (Biocell), antibiotics (50 units of penicillin and […] of streptomycin per ml), and 50 units of recombinant-derived human interleukin-2 (ala-125; AMGen Biologicals) per ml.
The clone H9 cell line is another CD4^+ human T-cell line which is permissive for HIV replication but largely resistant to virus induced CPE. H9 cells productively infected with the HTLV IIIB strain of HIV served as the source of infectious virus. These cells were propagated in RPMI 1640 medium supplemented with glutamine and antibiotics as described above, and with 20% heat-inactivated fetal bovine serum. Freshly harvested, undiluted culture supernatant from the H9/HTLV-IIIB producer cells was used for infectious virus inoculum.
The screening of compounds for antiviral activity was performed using a modification of the CPE inhibition assay originally developed by Broder and co workers. This assay is based on the ability of uninfected ATH8 cells to grow and form a pellet at the bottom of a culture tube. Starting about 4 days after HIV addition, infected ATH8 cells begin to die and the pellet starts to break up. By day 10 a clear differential is observable in the size of the cell pellet in uninfected control wells versus infected control wells. The protective effect of test compounds can be assessed by adding them at varying concentrations to the cultured cells at the time of virus infection, then monitoring the status of the cell pellet.
(§2) ATH8 cells were used as the primary target in the HIV induced CPE inhibition assay. Cells were treated with polybrene (2 ug/ml in growth medium) for 30 minutes at 37° C., then collected by gentle centrifugation (40×g for 15 minutes at room temperature) and resuspended in clarified (8000×g for 15 minutes at 4° C.) supernate freshly harvested from 48 hours post passage H9/HTL IIIB cells. Following a 60-minute adsorption period at 37° C., the cells were dispensed into the U-bottom wells of 96-well trays (1×10^4 cells in 0.1 ml per well). An equal volume (0.1 ml) of supplemented RPMI 1640 medium containing test compound and twice the normal concentration of interleukin-2 was then added to each well. Test compounds were evaluated at seven half-log dilutions ranging from 100 uq/ml to 0.1 uq/ml. […]
(§3) Between 7 and 10 days post infection, all wells were visually monitored for the degree of CPE inhibition as reflected by cell pellet size, and aliquots were taken from selected wells for determination of cell number and viability (based on trypan blue dye exclusion).

[2] = compound cytotoxicity in ATH8 cells (HIV CPE inhibition assay); format: cell-based; conditions: human, read-out: MTC
Method: as §1
as §2, with “An equal volume (0.1 ml) of supplemented RPMI 1640 medium containing test compound and twice the normal concentration of interleukin-2 was then added to each well.” left out
as §3

## Nc1ncnc2c1ncn2C1CC(CO)C1CO (stereo not shown) [Example 4C, 9-(2',3'-Bis(hydroxymethyl)cyclobutyl)adenine]
[1]
  ID50: < 0.1
  TI: 32
  VR: 3.5
[2]
  MCC: 3.2 µg/mL
